Experimental findings from patent US10106552B2, “Compounds inhibiting eukaryotic elongation factor 2 kinase activity” (Longevica Pharmaceuticals, Inc., priority 2013, dated 2018) are described below.

The assay has as its target recombinant eEF2K (Homo sapiens (Human), UniProt O00418). The assay can be described thus: eEF2K Kinase-Glo luminescent kinase assay (ATP consumption, peptide substrate). As to conditions: average of two to four separate experimental measurements, each the average of three replicates. The class given is biochemical. How it is done: The following compounds were synthesized using the general methods described above. In the table below, IC50 values are in μM and are the average of two to four separate experimental measurements, each consisting in turn of the average of three replicates. IC50 values were calculated using the methods as described in Example 2. MW was determined by mass spectroscopy analysis, and is expressed as M+1.
To determine the IC50 of compounds of the invention, recombinant eEF2K was diluted in an assay buffer in the presence of calmodulin, a calcium-binding messenger protein expressed in eukaryotic cells, and incubated with peptide substrate Ac-RKKYKFNEDTERRRFL in the presence of Adenosine-5′-triphosphate (ATP) and the test compound. The peptide substrate is efficiently and specifically phosphorylated by eEF2K at a single substrate concentration of 100 μM. Using this peptide, eEF2K activity can be quantitatively determined using a Kinase-Glo® luminescent kinase assay kit (Promega) that measures ATP consumption by EF2K during phosphorylation of the substrate. ATP conversion was recorded using Perkin-Elmer Victor Luminometer. Data was plotted using GraphPad software and IC50 was calculated using 3-parameter sigmoidal curve fit.
The term IC50 denotes the concentration at which inhibition is half-maximal. For the molecule `CC1(C)C/C(=C\c2ccc(Cl)o2)c2nc3sc(C(N)=O)c(N)c3c(-c3ccc(Cl)o3)c2C1` [Compound 1, 3-Amino-4-(5-chloro-furan-2-yl)-8-(5-chloro-furan-2-ylmethylene)-6,6-dimethyl-5,6,7,8-tetrahydro-thieno[2,3-b]quinoline-2-carboxylic acid amide], the IC50 is 2.7 µM.

Regarding `CC1(C)CCc2nc3sc(C(N)=O)c(N)c3c(-c3ccc(Cl)o3)c2C1` [Compound 2, 3-Amino-4-(5-chloro-furan-2-yl)-6,6-dimethyl-5,6,7,8-tetrahydro-thieno[2,3-b]quinoline-2-carboxylic acid amide], the IC50 worked out at 1.1 µM. As for `NC(=O)c1sc2nc3c(c(-c4ccc(Cl)o4)c2c1N)CC(c1ccccc1)C/C3=C\c1ccc(Cl)o1` (centres unmarked) [Compound 3, 3-Amino-4-(5-chloro-furan-2-yl)-8-(5-chloro-furan-2-ylmethylene)-6-phenyl-5,6,7,8-tetrahydro-thieno[2,3-b]quinoline-2-carboxylic acid amide], the figure is 10000 µM; as for `NC(=O)c1sc2nc3c(c(-c4ccc(Cl)o4)c2c1N)CC(c1ccccc1)CC3` (centres unmarked) [Compound 4, 3-Amino-4-(5-chloro-furan-2-yl)-6-phenyl-5,6,7,8-tetrahydro-thieno[2,3-b]quinoline-2-carboxylic acid amide], 10000 µM. On to `CCCC1C/C(=C\c2ccc(Cl)o2)c2nc3sc(C(N)=O)c(N)c3c(-c3ccc(Cl)o3)c2C1` (centres unmarked) [Compound 5, 3-Amino-4-(5-chloro-furan-2-yl)-8-(5-chloro-furan-2-ylmethylene)-6-propyl-5,6,7,8-tetrahydro-thieno[2,3-b]quinoline-2-carboxylic acid amide], for which the IC50 is 6 µM. The result for `CC1(C)CCc2nc3sc(C(N)=O)c(N)c3c(-c3ccco3)c2C1` [Compound 6, 3-Amino-4-furan-2-yl-6,6-dimethyl-5,6,7,8-tetrahydro-thieno[2,3-b]quinoline-2-carboxylic acid amide] reads 1.2 µM. For the molecule `CC1(C)CCc2c(nc3sc(C(N)=O)c(N)c3c2-c2ccc(Cl)o2)C1` [Compound 7, 3-Amino-4-(5-chloro-furan-2-yl)-7,7-dimethyl-5,6,7,8-tetrahydro-thieno[2,3-b]quinoline-2-carboxylic acid amide], the IC50 was determined as 1.6 µM. As for `CC1(C)CCCc2c1nc1sc(C(N)=O)c(N)c1c2-c1ccc(Cl)o1` [Compound 8, 3-Amino-4-(5-chloro-furan-2-yl)-8,8-dimethyl-5,6,7,8-tetrahydro-thieno[2,3-b]quinoline-2-carboxylic acid amide], the figure is 4.7 µM; as for `CC1(C)CCc2c1nc1sc(C(N)=O)c(N)c1c2-c1ccc(Cl)o1` [Compound 9, 3-Amino-4-(5-chloro-furan-2-yl)-7,7-dimethyl-6,7-dihydro-5H-1-thia-8-aza-s-indacene-2-carboxylic acid amide], 2.4 µM. As for `CC1(C)CCc2c(nc3sc(C(N)=O)c(N)c3c2-c2ccco2)C1` [Compound 10, 3-Amino-4-furan-2-yl-7,7-dimethyl-5,6,7,8-tetrahydro-thieno[2,3-b]quinoline-2-carboxylic acid amide], the figure is 1 µM. The result for `CC1(C)CCc2c(nc3sc(C(N)=O)c(N)c3c2-c2ccc(Cl)c(Cl)c2)C1` [Compound 11, 3-Amino-4-(3,4-dichloro-phenyl)-7,7-dimethyl-5,6,7,8-tetrahydro-thieno[2,3-b]quinoline-2-carboxylic acid amide] reads 23 µM; that for `CC1CC(C)(C)Cc2nc3sc(C(N)=O)c(N)c3c(-c3ccc(Cl)o3)c21` (centres unmarked) [Compound 12, 3-Amino-4-(5-chloro-furan-2-yl)-5,7,7-trimethyl-5,6,7,8-tetrahydro-thieno[2,3-b]quinoline-2-carboxylic acid amide], 5 µM. As to `NC(=O)c1sc2nc3c(c(-c4ccc(Cl)o4)c2c1N)CCCC3c1ccccc1` (centres unmarked) [Compound 13, 3-Amino-4-(5-chloro-furan-2-yl)-8-phenyl-5,6,7,8-tetrahydro-thieno[2,3-b]quinoline-2-carboxylic acid amide], the 50% inhibitory concentration (IC50) was found to be 31 µM.

As for `CC1(C)C/C(=C\c2cccc(Cl)c2F)c2nc3sc(C(N)=O)c(N)c3c(-c3cccc(Cl)c3F)c2C1` [Compound 14, 3-Amino-8-(3-chloro-2-fluoro-benzylidene)-4-(3-chloro-2-fluoro-phenyl)-6,6-dimethyl-5,6,7,8-tetrahydro-thieno[2,3-b]quinoline-2-carboxylic acid amide], the IC50 turned out to be 5020 µM.

For the molecule `CC1(C)CCc2c1nc1sc(C(N)=O)c(N)c1c2-c1ccco1` [Compound 15, 3-Amino-4-furan-2-yl-7,7-dimethyl-6,7-dihydro-5H-1-thia-8-aza-s-indacene-2-carboxylic acid amide], the half-maximal inhibitory concentration (IC50) stood at 2.5 µM.

On to `CC1CC(C)(C)Cc2nc3sc(C(N)=O)c(N)c3c(-c3ccco3)c21` (centres unmarked) [Compound 16, 3-Amino-4-furan-2-yl-5,7,7-trimethyl-5,6,7,8-tetrahydro-thieno[2,3-b]quinoline-2-carboxylic acid amide], for which the IC50 amounted to 4.6 µM. The result for `CC1(C)CCc2c1nc1sc(C(N)=O)c(N)c1c2-c1ccoc1` [Compound 17, 3-Amino-4-furan-3-yl-7,7-dimethyl-6,7-dihydro-5H-1-thia-8-aza-s-indacene-2-carboxylic acid amide] reads 1.1 µM; that for `CC1(C)CCc2c1nc1sc(C(N)=O)c(N)c1c2-c1ccsc1` [Compound 18, 3-Amino-7,7-dimethyl-4-thiophen-3-yl-6,7-dihydro-5H-1-thia-8-aza-s-indacene-2-carboxylic acid amide], 0.9 µM; that for `CC1(C)CCc2c1nc1sc(C(N)=O)c(N)c1c2C1CC1` [Compound 19, 3-Amino-4-cyclopropyl-7,7-dimethyl-6,7-dihydro-5H-1-thia-8-aza-s-indacene-2-carboxylic acid amide], 1.1 µM.

Take `CC1(C)CCc2nc3sc(C(N)=O)c(N)c3c(-c3ccsc3)c2C1` [Compound 20, 3-Amino-6,6-dimethyl-4-thiophen-3-yl-5,6,7,8-tetrahydro-thieno[2,3-b] quinoline-2-carboxylic acid amide]: the IC50 was 2.2 µM. As for `CC1(C)CCc2nc3sc(C(N)=O)c(N)c3c(-c3ccoc3)c2C1` [Compound 21, 3-Amino-4-furan-3-yl-6,6-dimethyl-5,6,7,8-tetrahydro-thieno[2,3-b]quinoline-2-carboxylic acid amide], the figure is 2 µM; as for `CC1(C)C/C(=C\c2ccoc2)c2nc3sc(C(N)=O)c(N)c3c(-c3ccoc3)c2C1` [Compound 22, 3-Amino-4-furan-3-yl-8-furan-3-ylmethylene-6,6-dimethyl-5,6,7,8-tetrahydro-thieno[2,3-b]quinoline-2-carboxylic acid amide], 6 µM. As for `CC1(C)CCc2c1nc1sc(C(N)=O)c(N)c1c2-c1nccs1` [Compound 23, 3-Amino-7,7-dimethyl-4-thiazol-2-yl-6,7-dihydro-5H-1-thia-8-aza-s-indacene-2-carboxylic acid amide], the figure is 2 µM; as for `CC1(C)CCc2c1nc1sc(C(N)=O)c(N)c1c2-c1ccc(Cl)s1` [Compound 24, 3-Amino-4-(5-chloro-thiophen-2-yl)-7,7-dimethyl-6,7-dihydro-5H-1-thia-8-aza-s-indacene-2-carboxylic acid amide], 1.4 µM. As for `CC1(C)CCc2c1nc1sc(C(N)=O)c(N)c1c2-c1cc(Br)cs1` [Compound 25, 3-Amino-4-(4-bromo-thiophen-2-yl)-7,7-dimethyl-6,7-dihydro-5H-1-thia-8-aza-s-indacene-2-carboxylic acid amide], the figure is 0.8 µM; as for `CCC(C)c1c2c(nc3sc(C(N)=O)c(N)c13)C(C)(C)CC2` (centres unmarked) [Compound 26, 3-Amino-4-sec-butyl-7,7-dimethyl-6,7-dihydro-5H-1-thia-8-aza-s-indacene-2-carboxylic acid amide], 1 µM; as for `CC1(C)CCc2c1nc1sc(C(N)=O)c(N)c1c2-c1ccc(Br)s1` [Compound 27, 3-Amino-4-(5-bromo-thiophen-2-yl)-7,7-dimethyl-6,7-dihydro-5H-1-thia-8-aza-s-indacene-2-carboxylic acid amide], 1.5 µM. For the molecule `CC1(C)CCc2c1nc1sc(C(N)=O)c(N)c1c2-c1cncs1` [Compound 28, 3-Amino-7,7-dimethyl-4-thiazol-5-yl-6,7-dihydro-5H-1-thia-8-aza-s-indacene-2-carboxylic acid amide], the IC50 amounted to 0.4 µM. As for `Cn1cc(-c2c3c(nc4sc(C(N)=O)c(N)c24)C(C)(C)CC3)cn1` [Compound 29, 3-Amino-7,7-dimethyl-4-(1-methyl-1H-pyrazol-4-yl)-6,7-dihydro-5H-1-thia-8-aza-s-indacene-2-carboxylic acid amide], the figure is 0.7 µM; as for `CC1(C)CCc2c1nc1sc(C(N)=O)c(N)c1c2-c1cscn1` [Compound 30, 3-Amino-7,7-dimethyl-4-thiazol-4-yl-6,7-dihydro-5H-1-thia-8-aza-s-indacene-2-carboxylic acid amide], 3.4 µM. As for `CC1(C)CCc2c1nc1sc(C(N)=O)c(N)c1c2-c1cocn1` [Compound 31, 3-Amino-7,7-dimethyl-4-oxazol-4-yl-6,7-dihydro-5H-1-thia-8-aza-s-indacene-2-carboxylic acid amide], the figure is 3.5 µM; as for `Cc1csc(-c2c3c(nc4sc(C(N)=O)c(N)c24)C(C)(C)CC3)n1` [Compound 32, 3-Amino-7,7-dimethyl-4-(4-methyl-thiazol-2-yl)-6,7-dihydro-5H-1-thia-8-aza-s-indacene-2-carboxylic acid amide], 3.8 µM.
